The subject of one series is L1210. Description: L1210 cytotoxic potency. The note with it: for distinction NO2 versus OMe substituent (more potent than corresponding methoxy derivative): C5, C6, C7 nitro vs corresponding methoxy; for fold less potent than C5 acyl derivative 54: 52: versus the C5 acyl derivatives, 62: versus 54.
The subject of the next series is w794 DNA. Description: DNA alkylation selectivity, efficiency and rate in w794 DNA. Format: biochemical.
Setting [1] is: relative to (+)-CBI-indole (R=H).
[2] abbreviates: read-out: IC50 (cytotoxic potency), L1210.
Where [3] appears, read: Mus musculus, L1210, read-out: IC50 (cytotoxic potency).
The mark [4] stands for this setting: relative to CBI-TMI, IC50=30 pM.

“And” between values parts separate entries of the source, which are not always exact repeats. Identical values can stand only once. Like-named read-outs stand apart in the source and are kept apart here.

With `O=C1C=C2N(C(=O)c3cc4c(ccc5ccccc54)[nH]3)C[C@H]3C[C@@]23c2ccccc21` [(+)-77, N^2-[(Benz[e]indole-2-yl)carbonyl]-1,2,9,9a-tetrahydrocyclopropa[c]benz[e]indol-4-one], the “reduction in potency relative to the fused pyrrole 69 or the fused furan 71” value in the series with L1210 was 6-8 fold. Besides, in the series with L1210 (setting [1]), the “reduction in cytotoxic potency compared to (+)-CBI-indole” value amounted to 2 fold.

`O=C1C=C2N(C(=O)c3cc4cc5ccccc5cc4[nH]3)C[C@@H]3C[C@]23c2ccccc21` [(+)-78, N^2-[(Benz[f]indole-2-yl)carbonyl]-1,2,9,9a-tetrahydrocyclopropa[c]benz[e]indol-4-one]: the “increase in cytotoxic potency over (+)-CBI-indole (5)” value (from here on “increase in cytotoxic potency over”) in the series with L1210 (setting [1]) came to 5 fold.

Broadly, the IC50 is the midpoint of a concentration-inhibition curve. With `COc1cc2cc(C(=O)N3CC4CC45C3=CC(=O)c3ccccc35)[nH]c2c(OC)c1OC` (stereo not drawn) [CBI-TMI, reference compound], the IC50 with L1210 (setting [2]) was 0.03 nM. For the same compound, the “increase in cytotoxic potency over” value in the series on L1210 (setting [1]) is ~100 fold and 90 fold.

For the compound `COc1c(O)c2c(c3cc(C(=O)N4CCc5c4c(O)c(OC)c4[nH]c(C(=O)N6CC7CC78C6=CC(=O)c6[nH]cc(C)c68)cc54)[nH]c13)CCN2C(N)=O` (stereo not drawn) [CC-1065], in the series on L1210 (setting [3]), the IC50 amounted to 0.02 nM.

For the compound `O=C1C=C2N(C(=O)c3cc4ccccc4[nH]3)CC3CC23c2ccccc21` [compound 5, N^2-[(Indole-2-yl)carbonyl]-(8bR,9aS)-1,2,9,9a-tetrahydrocyclopropa[c]benz[e]indol-4-one, reference compound], the IC50 in the series on L1210 (setting [2]) came out at 0.05 nM.

In the case of `COc1cccc2[nH]c(C(=O)N3C[C@H]4C[C@@]45C3=CC(=O)c3ccccc35)cc12` [compound 6, N^2-[(4-Methoxyindole-2-yl)carbonyl]-(8bR,9aS)-1,2,9,9a-tetrahydrocyclopropa[c]benz[e]indol-4-one], the “increase in cytotoxic potency over” value in the series with L1210 (setting [1]) was 4 fold. Besides, the “decrease in cytotoxic potency compared with CBI-TMI (4)” value (“decrease in cytotoxic potency” for short) in the series on L1210 (setting [4]) was 17 fold and 16-17 fold.

Regarding `COc1ccc2[nH]c(C(=O)N3C[C@H]4C[C@@]45C3=CC(=O)c3ccccc35)cc2c1` [compound 7, N^2-[(5-Methoxyindole-2-yl)carbonyl]-(8bR,9aS)-1,2,9,9a-tetrahydrocyclopropa[c]benz[e]indol-4-one], the IC50 in the series with L1210 (setting [2]) amounted to 0.05 nM. For the same compound, in the series with L1210 (setting [4]), the “decrease in cytotoxic potency” value was 1.6 fold.

Regarding `COc1ccc2[nH]c(C(=O)N3CC4CC45C3=CC(=O)c3ccccc35)cc2c1OC` [compound 10, N^2-[(4,5-Dimethoxyindole-2-yl)carbonyl]-(8bR,9aS)-1,2,9,9a-tetrahydrocyclopropa[c]benz[e]indol-4-one], the “relative cytotoxic potency in words” value in the series on L1210 is reported as “much less active”.

As for `COc1ccc2cc(C(=O)N3CC4CC45C3=CC(=O)c3ccccc35)[nH]c2c1OC` [compound 12, N^2-[(6,7-Dimethoxyindole-2-yl)carbonyl]-(8bR,9aS)-1,2,9,9a-tetrahydrocyclopropa[c]benz[e]indol-4-one], in the series on L1210 (setting [4]), the “decrease in cytotoxic potency” value is on record as 6.6 fold.

Consider `CCOc1ccc2[nH]c(C(=O)N3CC4CC45C3=CC(=O)c3ccccc35)cc2c1` [compound 15, N^2-[(5-Ethoxyindole-2-yl)carbonyl]-(8bR,9aS)-1,2,9,9a-tetrahydrocyclopropa[c]benz[e]indol-4-one], for which, in the series on L1210 (C5 alkyl ethers relative to C5 OMe), the “additional increase in cytotoxic potency versus C5 methoxy” value is on record as 5 fold. The IC50 in the series with L1210 (setting [2]) is 0.01 nM.

In the case of `CSc1ccc2[nH]c(C(=O)N3CC4CC45C3=CC(=O)c3ccccc35)cc2c1` [compound 21, N^2-[(5-Thiomethylindole-2-yl)carbonyl]-(8bR,9aS)-1,2,9,9a-tetrahydrocyclopropa[c]benz-[e]indol-4-one], the IC50 in the series with L1210 (setting [2]) was found to be 0.05 nM.

On to `CCSc1ccc2[nH]c(C(=O)N3CC4CC45C3=CC(=O)c3ccccc35)cc2c1` [compound 23, N^2-[(5-Thioethylindole-2-yl)carbonyl]-(8bR,9aS)-1,2,9,9a-tetrahydrocyclopropa[c]benz[e]indol-4-one], for which, in the series with L1210 (setting [2]), the IC50 was 0.1 nM.

In the case of `Cc1ccc2[nH]c(C(=O)N3C[C@H]4C[C@@]45C3=CC(=O)c3ccccc35)cc2c1` [compound 24, N^2-[(5-Methylindole-2-yl)carbonyl]-(8bR,9aS)-1,2,9,9a-tetrahydrocyclopropa[c]benz[e]in-dol-4-one], the IC50 with L1210 (setting [2]) was determined as 2 nM.

On to `CCc1ccc2[nH]c(C(=O)N3CC4CC45C3=CC(=O)c3ccccc35)cc2c1` [compound 25, N^2-[(5-Ethylindole-2-yl)carbonyl]-(8bR,9aS)-1,2,9,9a-tetrahydrocyclopropa[c]benz[e]indol-4-one], for which the IC50 in the series on L1210 (setting [2]) was 2 nM.

With `N#Cc1ccc2[nH]c(C(=O)N3CC4CC45C3=CC(=O)c3ccccc35)cc2c1` [compound 31, N^2-[(5-Cyanoindole-2-yl)carbonyl]-(8bR,9aS)-1,2,9,9a-tetrahydrocyclopropa[c]benz[e]in-dol-4-one], the IC50 in the series on L1210 (setting [2]) was 0.03 nM.

Take `O=C(c1cc2cc([N+](=O)[O-])ccc2[nH]1)N1C[C@@H](CCl)c2c1cc(O)c1ccccc21` [compound 49, 3-(5-Nitroindole-2-carbonyl)-1-(S)-(chloromethyl)-5-hydroxy-1,2-dihydro-3H-benz[e]indole]: the “distinction NO2 versus OMe substituent (more potent than corresponding methoxy derivative)” value (from here on “distinction NO2 versus OMe substituent”) in the series with L1210 is on record as 2.5 ×. Moreover, the IC50 in the series with L1210 (setting [3]) is 0.02 nM.

Regarding `O=C(c1cc2ccc([N+](=O)[O-])cc2[nH]1)N1C[C@@H](CCl)c2c1cc(O)c1ccccc21` [compound 50, 3-(6-Nitroindole-2-carbonyl)-1-(S)-(chloromethyl)-5-hydroxy-1,2-dihydro-3H-benz[e]indole], the “distinction NO2 versus OMe substituent” value in the series on L1210 came out at 5 ×.

With `O=C(c1cc2cccc([N+](=O)[O-])c2[nH]1)N1C[C@@H](CCl)c2c1cc(O)c1ccccc21` [compound 51, 3-(7-Nitroindole-2-carbonyl)-1-(S)-(chloromethyl)-5-hydroxy-1,2-dihydro-3H-benz[e]indole], in the series on L1210, the “distinction NO2 versus OMe substituent” value is 1.5 ×.

As for `O=Cc1ccc2[nH]c(C(=O)N3C[C@@H](CCl)c4c3cc(O)c3ccccc43)cc2c1` [compound 52, 3-(5-Formylindole-2-carbonyl)-1-(S)-(chloromethyl)-5-hydroxy-1,2-dihydro-3H-benz[e]indole], the “fold less potent than C5 acyl derivative 54” value with L1210 is given as 50 fold.

For `CC(=O)c1ccc2[nH]c(C(=O)N3C[C@H]4C[C@@]45C3=CC(=O)c3ccccc35)cc2c1` [compound 54, N^2-[(5-Acetylindole-2-yl)carbonyl]-(8bR,9aS)-1,2,9,9a-tetrahydrocyclopropa[c]benz[e]in-dol-4-one], in the series with w794 DNA, the DNA alkylation selectivity result was “no alterations in the inherent DNA alkylation selectivity”; the “rate and efficiency of DNA alkylation” value was “enhanced rate and efficiency of DNA alkylation”. Moreover, the “increase in cytotoxic potency over” value in the series on L1210 (setting [1]) was 1000 fold.

With `CCC(=O)c1ccc2[nH]c(C(=O)N3CC4CC45C3=CC(=O)c3ccccc35)cc2c1` [compound 56, N^2-[(5-Propionylindole-2-yl)carbonyl]-(8bR,9aS)-1,2,9,9a-tetrahydrocyclopropa[c]benz[e]-indol-4-one], the “increase in cytotoxic potency over” value in the series on L1210 (setting [1]) came to 1000 fold.

For `CCCC(=O)c1ccc2[nH]c(C(=O)N3C[C@H]4C[C@@]45C3=CC(=O)c3ccccc35)cc2c1` [compound 57, N^2-[(5-Butyrylindole-2-yl)carbonyl]-(8bR,9aS)-1,2,9,9a-tetrahydrocyclopropa[c]benz[e]indol-4-one], in the series with L1210 (setting [2]), the IC50 worked out at 0.02 nM.

For the compound `CNC(=O)c1ccc2[nH]c(C(=O)N3C[C@@H](CCl)c4c3cc(O)c3ccccc43)cc2c1` [compound 62, 3-(5-Methylcarbamoylindole-2-carbonyl)-1-(S)-(chloromethyl)-5-hydroxy-1,2-dihydro-3H-benz[e]indole], the “fold less potent than C5 acyl derivative 54” value with L1210 was found to be 5 fold. The “fold more potent than (+)-CBI-TMI” value with L1210 (setting [4]) is reported as 3 fold.

In the case of `CS(=O)(=O)c1ccc2[nH]c(C(=O)N3C[C@@H](CCl)c4c3cc(O)c3ccccc43)cc2c1` [compound 64, 3-(5-Methylsulfonylindole-2-carbonyl)-1-(S)-(chloromethyl)-5-hydroxy-1,2-dihydro-3H-benz[e]indole], in the series on L1210 (setting [3]), the IC50 was found to be 0.003 nM. The “increase in cytotoxic potency over” value with L1210 (setting [1]) was 1000 fold.

Consider `CCS(=O)(=O)c1ccc2[nH]c(C(=O)N3C[C@@H](CCl)c4c3cc(O)c3ccccc43)cc2c1` [compound 65, 3-(5-Ethylsulfonylindole-2-carbonyl)-1-(S)-(chloromethyl)-5-hydroxy-1,2-dihydro-3H-benz[e]indole], for which, in the series on L1210 (setting [3]), the IC50 stood at 0.04 nM.

As to `O=C1C=C2N(C(=O)c3cc4c5c(ccc4[nH]3)OCC5)CC3CC23c2ccccc21` [compound 70, N^2-[(1,2-Dihydropyrrolo[3,2-e]benzofuran-7-yl)carbonyl]-(8bR,9aS)-1,2,9,9a-tetrahydro-cyclopropa[c]benz[e]indol-4-one], the “relative cytotoxic potency in words” value in the series on L1210 is given as “slightly more potent than 7”.

Turning to `O=C1CCc2c1ccc1[nH]c(C(=O)N3C[C@@H](CCl)c4c3cc(O)c3ccccc43)cc21` [compound 72, 3-(6-Oxo-cyclopenten[e]indole-2-carbonyl)-1-(S)-(chloromethyl)-5-hydroxy-1,2-dihydro-3H-benz[e]indole], in the series with L1210, the “relative cytotoxic potency in words” value is “matched the potency of the C5 substituted methyl and ethyl ketones 54 and 56”.

With `O=C(C1Oc2ccc3[nH]ccc3c2O1)N1C[C@@H](CCl)c2c1cc(O)c1ccccc21` (stereo partly drawn) [compound 74, 3-([1,3]Dioxolo[e]indole-2-carbonyl)-1-(S)-(chloromethyl)-5-hydroxy-1,2-dihydro-3H-benz[e]indole], the “relative cytotoxic potency in words” value in the series on L1210 is listed as “much more active than the corresponding unconstrained 4,5 dimethoxy derivative 10”.

Regarding `O=C1C=C2N(C(=O)c3cc4cc5c(cc4[nH]3)OCO5)C[C@H]3C[C@@]23c2ccccc21` [compound 75, N^2-[([1,3]Dioxolo[f]indole-2-yl)carbonyl]-(8bR,9aS)-1,2,9,9a-tetrahydrocyclopropa[c]-benz[e]indol-4-one], the “relative cytotoxic potency in words” value in the series on L1210 is on record as “substantially less potent than the corresponding unconstrained C5,6 dimethoxy derivative 11”.

Source of the values: patent publication US20050026987A1, “CBI analogues of the duocarmycins and CC-1065” (The Scripps Research Institute, priority 2003, published 2005).
